How the values were obtained:
[1] = target: T1, Serine/threonine-protein kinase B-raf (Homo sapiens, UniProt P15056, V600E); experiment: Inhibition of recombinant His-tagged BRAF V600E mutant (unknown origin) (444-723 residues) expressed in Escherichia coli BL21(DE3)-RIL using MEKK97R as substrate assessed as reduction in phosphorylation incubated for 20 mins by immunoblot assay
A-375 = experiment: Antiproliferative activity at human A375 cells expressing BRAF V600E mutant assessed as reduction in cell viability incubated for 96 hrs by MTT assay; type: functional, cell-based; conditions: A-375, 96 h
SK-MEL-5 = experiment: Growth inhibition of human SK-MEL-5 cells harboring BRAF V600E mutant incubated for 48 hrs by sulforhodamine B assay; type: functional
[2] = target: RAF proto-oncogene serine/threonine-protein kinase (Homo sapiens) (UniProt P04049); experiment: Inhibition of CRAF (unknown origin) at 1 uM relative to control
Chain of RAF proto-oncogene serine/threonine-protein kinase (Homo sapiens) (P04049 whole entry): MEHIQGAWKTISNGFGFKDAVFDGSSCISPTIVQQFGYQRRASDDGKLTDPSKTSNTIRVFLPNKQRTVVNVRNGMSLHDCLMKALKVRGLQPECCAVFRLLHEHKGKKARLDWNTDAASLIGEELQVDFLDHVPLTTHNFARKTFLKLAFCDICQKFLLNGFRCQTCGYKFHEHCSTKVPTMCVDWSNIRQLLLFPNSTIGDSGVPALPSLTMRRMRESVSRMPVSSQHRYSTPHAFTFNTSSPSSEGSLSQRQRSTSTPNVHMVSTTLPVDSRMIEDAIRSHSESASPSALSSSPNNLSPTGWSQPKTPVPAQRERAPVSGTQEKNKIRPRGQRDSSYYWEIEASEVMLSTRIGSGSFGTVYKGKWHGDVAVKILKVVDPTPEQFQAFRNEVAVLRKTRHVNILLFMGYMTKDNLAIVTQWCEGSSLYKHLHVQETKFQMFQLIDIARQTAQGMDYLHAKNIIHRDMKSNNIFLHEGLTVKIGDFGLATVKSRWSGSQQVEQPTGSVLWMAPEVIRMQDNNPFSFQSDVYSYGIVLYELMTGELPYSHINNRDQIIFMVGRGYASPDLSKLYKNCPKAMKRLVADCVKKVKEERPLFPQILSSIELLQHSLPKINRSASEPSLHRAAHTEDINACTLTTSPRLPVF

[3] = target: T1, Serine/threonine-protein kinase B-raf; experiment: Inhibition of BRAF V600E in human A375 cells assessed as reduction in ERK phosphorylation incubated for 1 hr by immunoblot analysis; type: cell-based
[4] = target: Serine/threonine-protein kinase B-raf (Homo sapiens) (UniProt P15056); experiment: Inhibition of BRAF (unknown origin) at 1 uM relative to control
Chain of Serine/threonine-protein kinase B-raf (Homo sapiens) (P15056 whole entry, the tested form may be a part): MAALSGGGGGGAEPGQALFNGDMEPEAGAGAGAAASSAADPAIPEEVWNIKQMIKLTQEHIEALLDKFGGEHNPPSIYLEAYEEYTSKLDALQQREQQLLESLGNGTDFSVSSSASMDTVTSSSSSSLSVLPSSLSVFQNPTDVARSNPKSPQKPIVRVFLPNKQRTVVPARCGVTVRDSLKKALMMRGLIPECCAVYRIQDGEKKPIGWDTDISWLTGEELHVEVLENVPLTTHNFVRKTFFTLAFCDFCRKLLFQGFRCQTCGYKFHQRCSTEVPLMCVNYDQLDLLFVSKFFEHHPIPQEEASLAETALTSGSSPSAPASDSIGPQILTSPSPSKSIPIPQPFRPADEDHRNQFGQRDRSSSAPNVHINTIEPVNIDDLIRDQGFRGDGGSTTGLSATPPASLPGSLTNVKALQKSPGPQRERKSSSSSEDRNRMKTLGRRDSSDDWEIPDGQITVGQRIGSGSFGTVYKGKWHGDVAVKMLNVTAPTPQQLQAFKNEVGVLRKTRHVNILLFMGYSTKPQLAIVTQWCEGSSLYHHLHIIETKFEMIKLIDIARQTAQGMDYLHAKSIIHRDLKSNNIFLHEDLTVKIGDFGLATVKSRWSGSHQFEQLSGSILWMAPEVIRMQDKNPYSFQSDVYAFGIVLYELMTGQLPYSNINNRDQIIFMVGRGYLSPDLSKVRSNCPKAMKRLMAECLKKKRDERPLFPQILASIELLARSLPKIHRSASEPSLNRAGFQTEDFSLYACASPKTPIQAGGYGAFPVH

[5] = tested on: Serine/threonine-protein kinase B-raf (Homo sapiens), P15056 [V600E]; experiment: Potency index, ratio vemurafenib IC50 to test compound IC50 for Inhibition of recombinant His-tagged BRAF V600E mutant (unknown origin) (444 to 723 residues) expressed in Escherichia coli BL21(DE3)-RIL
Chain of Serine/threonine-protein kinase B-raf (Homo sapiens), P15056 [V600E] (P15056 whole entry V600E, the tested form may be a part): as the sequence (P15056 whole entry, the tested form may be a part) above, with V600E counted along it

[6] = target: Macrophage colony-stimulating factor 1 receptor (Homo sapiens) (UniProt P07333); experiment: Inhibition of FMS (unknown origin) at 1 uM relative to control
Chain of Macrophage colony-stimulating factor 1 receptor (Homo sapiens) (P07333 whole entry): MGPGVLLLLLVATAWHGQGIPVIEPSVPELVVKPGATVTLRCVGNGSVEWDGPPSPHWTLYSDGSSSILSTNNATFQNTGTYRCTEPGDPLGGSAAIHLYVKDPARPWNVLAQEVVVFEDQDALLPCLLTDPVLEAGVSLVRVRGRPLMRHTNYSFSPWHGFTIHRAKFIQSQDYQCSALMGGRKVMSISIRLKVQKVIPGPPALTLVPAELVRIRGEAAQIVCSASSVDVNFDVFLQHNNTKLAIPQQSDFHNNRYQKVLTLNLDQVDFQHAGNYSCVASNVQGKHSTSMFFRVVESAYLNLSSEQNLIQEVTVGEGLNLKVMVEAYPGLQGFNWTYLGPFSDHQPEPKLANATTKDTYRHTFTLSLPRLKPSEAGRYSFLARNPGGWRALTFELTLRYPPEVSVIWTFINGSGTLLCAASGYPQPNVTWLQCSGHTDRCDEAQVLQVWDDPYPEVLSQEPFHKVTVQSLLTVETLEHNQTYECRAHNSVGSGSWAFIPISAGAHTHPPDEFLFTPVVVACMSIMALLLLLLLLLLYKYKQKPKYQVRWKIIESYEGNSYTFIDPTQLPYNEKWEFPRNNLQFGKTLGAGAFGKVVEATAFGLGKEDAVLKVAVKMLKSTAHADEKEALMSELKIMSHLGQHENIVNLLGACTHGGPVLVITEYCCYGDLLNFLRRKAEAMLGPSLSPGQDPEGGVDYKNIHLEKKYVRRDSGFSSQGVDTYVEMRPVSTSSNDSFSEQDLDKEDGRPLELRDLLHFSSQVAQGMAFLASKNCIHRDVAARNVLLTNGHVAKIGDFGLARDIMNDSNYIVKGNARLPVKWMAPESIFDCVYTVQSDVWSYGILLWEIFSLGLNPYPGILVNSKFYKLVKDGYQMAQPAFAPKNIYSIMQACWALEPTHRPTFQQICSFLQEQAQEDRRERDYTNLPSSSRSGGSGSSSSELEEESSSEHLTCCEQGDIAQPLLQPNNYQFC

[7] = target: Protein-tyrosine kinase 6 (Homo sapiens) (UniProt Q13882); experiment: Inhibition of BRK (unknown origin) at 1 uM relative to control
Chain of Protein-tyrosine kinase 6 (Homo sapiens) (Q13882 whole entry, looked up): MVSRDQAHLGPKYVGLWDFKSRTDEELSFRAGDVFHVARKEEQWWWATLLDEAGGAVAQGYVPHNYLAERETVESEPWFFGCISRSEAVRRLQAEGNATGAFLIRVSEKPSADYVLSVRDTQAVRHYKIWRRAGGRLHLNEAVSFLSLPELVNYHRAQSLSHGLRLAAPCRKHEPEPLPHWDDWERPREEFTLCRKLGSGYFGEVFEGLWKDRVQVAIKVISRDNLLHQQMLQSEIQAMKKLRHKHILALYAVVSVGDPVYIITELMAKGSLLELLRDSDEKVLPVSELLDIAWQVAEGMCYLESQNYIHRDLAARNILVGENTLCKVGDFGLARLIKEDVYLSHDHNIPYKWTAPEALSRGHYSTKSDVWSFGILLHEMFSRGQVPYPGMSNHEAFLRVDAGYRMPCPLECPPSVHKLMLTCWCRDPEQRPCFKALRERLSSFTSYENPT

MDA-MB-435 = experiment: Growth inhibition of human MDA-MB-435 cells harboring BRAF V600E mutant incubated for 48 hrs by sulforhodamine B assay; type: functional
Malme-3M = experiment: Growth inhibition of human MALME-3M cells harboring BRAF V600E mutant incubated for 48 hrs by sulforhodamine B assay; type: functional

T1 sequence (P15056 2-766 V600E limits assumed): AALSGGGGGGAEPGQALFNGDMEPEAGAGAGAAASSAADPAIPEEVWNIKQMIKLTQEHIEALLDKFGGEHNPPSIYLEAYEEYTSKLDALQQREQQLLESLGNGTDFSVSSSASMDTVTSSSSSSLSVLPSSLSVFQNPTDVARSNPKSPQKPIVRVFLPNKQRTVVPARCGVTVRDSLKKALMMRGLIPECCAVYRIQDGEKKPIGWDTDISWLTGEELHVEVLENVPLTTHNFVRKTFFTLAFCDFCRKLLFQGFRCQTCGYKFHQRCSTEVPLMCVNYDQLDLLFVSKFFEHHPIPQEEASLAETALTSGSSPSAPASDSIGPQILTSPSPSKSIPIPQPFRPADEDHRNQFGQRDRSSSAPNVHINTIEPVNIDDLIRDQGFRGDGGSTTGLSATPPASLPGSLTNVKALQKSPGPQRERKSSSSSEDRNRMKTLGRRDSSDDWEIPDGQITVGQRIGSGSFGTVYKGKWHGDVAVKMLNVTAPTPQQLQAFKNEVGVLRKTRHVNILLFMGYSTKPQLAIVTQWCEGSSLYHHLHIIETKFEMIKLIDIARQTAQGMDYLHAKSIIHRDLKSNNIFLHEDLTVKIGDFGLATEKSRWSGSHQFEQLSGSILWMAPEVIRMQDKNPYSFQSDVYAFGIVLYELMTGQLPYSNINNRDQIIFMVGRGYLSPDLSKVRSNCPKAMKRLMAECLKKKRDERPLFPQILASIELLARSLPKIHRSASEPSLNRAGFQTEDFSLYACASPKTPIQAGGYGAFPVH

IC50 [1] [nM]	IC50 (A-375) [nM]	SMILES	other results
41	> 10000	CCn1nc(C#Cc2cccc3c(Nc4cccc(C(F)(F)F)c4)nccc23)c2c(N)ncnc21	
8	417	CCn1nc(C#Cc2c(C)ccc3c(Nc4ccc(Cl)cc4)nccc23)c2c(N)ncnc21	Activity (SK-MEL-5): Dose-dependent effect; GI (SK-MEL-5): 6.6 µM; inhibition [2]: > 85%; IC50 [3]: 420 nM; inhibition [4]: > 85%; Ratio IC50 [5]: 2; inhibition [6]: > 85%; inhibition [7]: > 85%; Activity (MDA-MB-435): Dose-dependent effect; GI (MDA-MB-435): 4.6 µM; Activity (Malme-3M): Dose-dependent effect; GI (Malme-3M): 7.1 µM
21	869	Cc1ccc2c(Nc3cccc(C(F)(F)F)c3)nccc2c1C#Cc1nn(C(C)C)c2ncnc(N)c12	
> 300		Cc1ccc(Nc2nccc3c(C#Cc4nn(C(C)C)c5ncnc(N)c45)cccc23)cc1C(F)(F)F	
29	> 10000	CC(C)n1nc(C#Cc2cccc3c(Nc4ccc(Cl)cc4)nccc23)c2c(N)ncnc21	

Second part, the molecule before the results:

SMILES	IC50 [1] [nM]	IC50 (A-375) [nM]	other results
Cc1cn(-c2cc(Nc3nccc4c(C#Cc5nn(C(C)C)c6ncnc(N)c56)cccc34)cc(C(F)(F)F)c2)cn1	> 300		
CCCn1nc(C#Cc2cccc3c(Nc4cccc(C(F)(F)F)c4)nccc23)c2c(N)ncnc21	> 300		
CC(C)n1nc(C#Cc2cccc3c(Nc4ccc(Cl)c(C(F)(F)F)c4)nccc23)c2c(N)ncnc21	> 300		
CC(C)n1nc(C#Cc2cccc3c(Nc4cccc(C(F)(F)F)c4)ncnc23)c2c(N)ncnc21	> 300		
CC(C)n1nc(C#Cc2cccc3c(Oc4cccc(C(F)(F)F)c4)nccc23)c2c(N)ncnc21	> 300		
CCCS(=O)(=O)Nc1ccc(F)c(C(=O)c2c[nH]c3ncc(-c4ccc(Cl)cc4)cc23)c1F			inhibition [2]: > 85%; inhibition [4]: > 85%
CC(C)n1nc(C#Cc2cccc3c(Nc4cccc(C(F)(F)F)c4)nccc23)c2c(N)ncnc21	140	> 10000	inhibition [2]: > 85%; inhibition [4]: > 85%
CC(C)n1nc(C#Cc2cccc3c(Nc4cccc(C(F)(F)F)c4)cccc23)c2c(N)ncnc21	> 300		

Source: ChEMBL document CHEMBL4364309, “Rigidification Dramatically Improves Inhibitor Selectivity for RAF Kinases” (ACS Med Chem Lett, 2019)
